Laboratory results: ChEMBL document CHEMBL4480364, “Discovery of monoamine oxidase inhibitors by medicinal chemistry approaches” (Medchemcomm, 2019)
pIC50, pKi: −log10 of the molar value.

Legend:
[1] = biological target: T1, Amine oxidase [flavin-containing] A (Homo sapiens, UniProt P21397); test: Inhibition of human MAOA
T1 sequence (P21397 whole entry): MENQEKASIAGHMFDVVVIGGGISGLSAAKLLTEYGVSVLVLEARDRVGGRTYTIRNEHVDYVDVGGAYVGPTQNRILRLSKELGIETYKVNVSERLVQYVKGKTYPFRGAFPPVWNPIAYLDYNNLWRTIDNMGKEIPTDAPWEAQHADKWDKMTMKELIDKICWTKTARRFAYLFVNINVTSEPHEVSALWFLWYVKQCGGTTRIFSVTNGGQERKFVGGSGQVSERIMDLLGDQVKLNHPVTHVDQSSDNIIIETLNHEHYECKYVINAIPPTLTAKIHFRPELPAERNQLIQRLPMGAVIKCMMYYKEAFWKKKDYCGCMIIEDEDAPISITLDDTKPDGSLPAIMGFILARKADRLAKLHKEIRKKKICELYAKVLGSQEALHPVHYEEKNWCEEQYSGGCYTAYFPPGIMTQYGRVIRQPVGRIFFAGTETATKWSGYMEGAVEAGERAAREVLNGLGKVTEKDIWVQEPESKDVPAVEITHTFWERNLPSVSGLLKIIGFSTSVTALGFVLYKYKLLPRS

[2] = organism: Homo sapiens; test: Selectivity index, ratio of IC50 for inhibition of human MAOA to IC50 for IC50 for inhibition of human MAOB
[3] = biological target: T1, Amine oxidase [flavin-containing] A; test: Inhibition of recombinant human MAOA using kynuramine as substrate after 30 mins by fluorescence assay
[4] = biological target: T2, Amine oxidase [flavin-containing] B (Homo sapiens, UniProt P27338); test: Inhibition of human MAOB
T2 sequence (P27338 whole entry): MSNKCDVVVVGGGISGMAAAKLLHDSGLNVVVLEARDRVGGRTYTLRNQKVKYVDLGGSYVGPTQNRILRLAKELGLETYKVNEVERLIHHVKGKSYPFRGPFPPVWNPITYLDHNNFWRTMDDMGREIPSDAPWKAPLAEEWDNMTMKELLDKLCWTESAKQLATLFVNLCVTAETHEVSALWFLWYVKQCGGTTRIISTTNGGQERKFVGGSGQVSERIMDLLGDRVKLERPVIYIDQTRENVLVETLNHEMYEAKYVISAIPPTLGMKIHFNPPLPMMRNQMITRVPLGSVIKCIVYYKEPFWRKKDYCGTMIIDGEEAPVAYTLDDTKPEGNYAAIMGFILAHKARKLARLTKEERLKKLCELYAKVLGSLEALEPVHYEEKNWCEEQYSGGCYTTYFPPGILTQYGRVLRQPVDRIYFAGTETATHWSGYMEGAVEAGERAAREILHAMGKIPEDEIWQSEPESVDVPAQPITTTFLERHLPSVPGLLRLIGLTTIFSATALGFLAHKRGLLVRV

[5] = biological target: T2, Amine oxidase [flavin-containing] B; test: Inhibition of recombinant human MAOB using p-tyramine as substrate after 15 mins by Amplex Red dye-based fluorometric method
[6] = biological target: T1, Amine oxidase [flavin-containing] A; test: Inhibition of recombinant human MAOA using p-tyramine as substrate after 15 mins by Amplex Red dye-based fluorometric method
[7] = organism: Homo sapiens; test: Selectivity index, ratio of Ki for recombinant human MAOA to Ki for recombinant human MAOB
[8] = organism: Homo sapiens; test: Selectivity index, ratio of IC50 for human MAOA to IC50 for human MAOB
[9] = biological target: T3, MAO-B (amine oxidase [flavin-containing] B) (Homo sapiens, UniProt P27338); test: Inhibition of human MAOB at 1 uM relative to control
T3 sequence (P27338 whole entry): T2 sequence (P27338 whole entry)

[10] = biological target: T4, MAO-A (amine oxidase [flavin-containing] A) (Homo sapiens, UniProt P21397); test: Inhibition of human MAOA at 1 uM relative to control
T4 sequence (P21397 whole entry): T1 sequence (P21397 whole entry)

Compound: COc1cc(C2=NN(C(=O)Oc3ccccc3)C(c3ccc(O)c(OC)c3)C2)ccc1O (configuration not stated)
- pKi [1]: 6.85
- Ratio IC50 [2]: 9e-07

Compound: Cc1ncc(/C=C/c2ccc(CN3CCOCC3)c(O)c2)c(CO)c1O
- pIC50 [3]: 4.80

Compound: O=C1c2ccccc2C(=O)c2c(O)c(O)cc(O)c21 [PURPURIN]
- pIC50 [4]: < 4.40

Compound: O=C(/C=C/c1ccc([N+](=O)[O-])cc1)c1ccc(Cl)s1
- pKi [5]: 5.59
- pKi [6]: 6.31
- Ratio Ki [7]: 0.19

Compound: CCc1ccc(/C=C/C(=O)c2ccc(Cl)s2)cc1
- pKi [6]: 5.28
- Ratio Ki [7]: 16.8

Compound: O=C(SCCc1ccco1)c1cc2ccccc2oc1=O
- pIC50 [1]: 4.40
- Ratio IC50 [8]: 189
- pIC50 [4]: 6.70

Compound: CCn1c(=O)c2c(nc(/C=C/c3ccc(OC)c(OC)c3)n2C)n(CC)c1=O [ISTRADEFYLLINE]
- pKi [4]: 7.57

Compound: Cn1c(=O)c2[nH]c(-c3cccc(NC(=O)/C=C/c4cccc(F)c4)c3)nc2n(C)c1=O
- inhibition at 1 µM [9]: 30.9%
- inhibition at 1 µM [10]: 0%
- pKi [4]: 5.47

Compound: Cn1c(=O)c2c(nc(-c3cccc(Cl)c3)n2C)n(C)c1=O
- pKi [4]: 4.44
